The values below come from publication PMC5962351 (Nature, 2018).

Holding throughout (format): binding
Assay [1] deals with GluN1 (GluN1/GluN2B NMDA receptor) (Xenopus laevis, UniProt A0A1L8F5J9+A7XY94).
The target in assay [2] is GluN1 (GluN1/GluN2B ∆ATD NMDA receptor) (Xenopus laevis, UniProt A0A1L8F5J9+A7XY94, A0A1L8F5J9:DEL23-393/A0A1L8F5J9:G610R). Put plainly: X-ray crystal structure.
In assay [3] the target is GluN1 (GluN1/GluN2B NMDA receptor) (Xenopus laevis, UniProt A0A1L8F5J9+A7XY94, A0A1L8F5J9:G610R). As to the kind of experiment: competition with 3H-MK-801, scintillation proximity assay. On the technique in general: In a scintillation proximity assay essentially only radioactivity close to the scintillant gives light.

A word on the Kd: it is a measure of binding affinity in units of concentration. Lower therefore signals higher affinity. With `C[C@]12N[C@H](Cc3ccccc31)c1ccccc12` [MK-801], the values for the dissociation constant (Kd) in assay [1] and in assay [2] were 111 ± 8.5 nM and 1600 ± 300 nM, respectively.
Broadly, the Ki is the equilibrium dissociation constant of an inhibitor or competing ligand from its target. Lower therefore signals higher affinity. On to `CC12CC3CC(C)(C1)CC(N)(C3)C2` [memantine], for which the Ki in assay [3] is roughly 147000 nM.
